How the values were obtained:
[1] = target: Cyclin-dependent kinase 9 (Homo sapiens) (UniProt P50750)
[2] = target: Homeodomain-interacting protein kinase 3 (Homo sapiens) (UniProt Q9H422)
[3] = tested on: Mast/stem cell growth factor receptor Kit (Homo sapiens), P10721 [V559D]
[4] = target: Tyrosine-protein kinase BTK (Homo sapiens) (UniProt Q06187)
[5] = tested on: Phosphatidylinositol 4,5-bisphosphate 3-kinase catalytic subunit alpha isoform (Homo sapiens), P42336 [E545A]
[6] = target: Calcium/calmodulin-dependent protein kinase type 1D (Homo sapiens) (UniProt Q8IU85)
[7] = target: Dual serine/threonine and tyrosine protein kinase (Homo sapiens) (UniProt Q6XUX3)
[8] = target: Cyclin-dependent kinase 8 (Homo sapiens) (UniProt P49336)
[9] = target: T1, Serine/threonine-protein kinase Nek9 (Homo sapiens) (UniProt Q8TD19)
T1 sequence (whole entry): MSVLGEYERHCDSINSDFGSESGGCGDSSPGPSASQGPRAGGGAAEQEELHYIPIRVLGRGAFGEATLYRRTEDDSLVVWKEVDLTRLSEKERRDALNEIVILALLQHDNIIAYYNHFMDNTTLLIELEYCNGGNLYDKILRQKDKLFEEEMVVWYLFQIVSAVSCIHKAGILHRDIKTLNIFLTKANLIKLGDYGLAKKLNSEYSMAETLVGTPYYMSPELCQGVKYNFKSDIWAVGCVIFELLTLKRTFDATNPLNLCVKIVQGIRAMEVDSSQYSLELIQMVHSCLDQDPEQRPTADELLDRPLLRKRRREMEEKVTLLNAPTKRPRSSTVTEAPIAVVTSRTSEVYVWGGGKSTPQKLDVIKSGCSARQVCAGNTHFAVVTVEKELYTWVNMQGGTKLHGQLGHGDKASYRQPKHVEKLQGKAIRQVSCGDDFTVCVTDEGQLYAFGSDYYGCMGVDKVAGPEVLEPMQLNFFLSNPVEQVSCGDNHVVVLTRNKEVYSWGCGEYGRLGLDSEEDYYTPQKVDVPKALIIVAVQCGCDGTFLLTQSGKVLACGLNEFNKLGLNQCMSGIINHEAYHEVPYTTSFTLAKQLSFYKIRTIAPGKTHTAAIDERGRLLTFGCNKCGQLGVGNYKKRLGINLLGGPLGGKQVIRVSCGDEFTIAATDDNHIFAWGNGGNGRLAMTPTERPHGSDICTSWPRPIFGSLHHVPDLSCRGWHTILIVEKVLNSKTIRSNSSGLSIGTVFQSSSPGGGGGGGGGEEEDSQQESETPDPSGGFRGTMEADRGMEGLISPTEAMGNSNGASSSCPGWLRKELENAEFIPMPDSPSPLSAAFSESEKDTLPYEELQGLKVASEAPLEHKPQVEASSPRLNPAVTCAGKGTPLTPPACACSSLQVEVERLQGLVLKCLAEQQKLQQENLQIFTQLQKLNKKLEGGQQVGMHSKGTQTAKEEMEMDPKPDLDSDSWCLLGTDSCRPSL

[10] = tested on: Epidermal growth factor receptor (Homo sapiens), P00533 [G719S]
[11] = target: Atypical kinase COQ8A, mitochondrial (Homo sapiens) (UniProt Q8NI60)
[12] = target: Serine/threonine-protein kinase ULK3 (Homo sapiens) (UniProt Q6PHR2)
[13] = target: Cyclin-dependent kinase-like 2 (Homo sapiens) (UniProt Q92772)
[14] = target: Dual specificity tyrosine-phosphorylation-regulated kinase 2 (Homo sapiens) (UniProt Q92630)
[15] = tested on: Epidermal growth factor receptor (Homo sapiens), P00533 [G719C]
[16] = target: Serine/threonine-protein kinase 33 (Homo sapiens) (UniProt Q9BYT3)
[17] = target: Protein-tyrosine kinase 6 (Homo sapiens) (UniProt Q13882)
[18] = target: Tyrosine-protein kinase Lck (Homo sapiens) (UniProt P06239)
[19] = target: T2, Serine/threonine-protein kinase D1 (Homo sapiens) (UniProt Q15139)
T2 sequence (whole entry): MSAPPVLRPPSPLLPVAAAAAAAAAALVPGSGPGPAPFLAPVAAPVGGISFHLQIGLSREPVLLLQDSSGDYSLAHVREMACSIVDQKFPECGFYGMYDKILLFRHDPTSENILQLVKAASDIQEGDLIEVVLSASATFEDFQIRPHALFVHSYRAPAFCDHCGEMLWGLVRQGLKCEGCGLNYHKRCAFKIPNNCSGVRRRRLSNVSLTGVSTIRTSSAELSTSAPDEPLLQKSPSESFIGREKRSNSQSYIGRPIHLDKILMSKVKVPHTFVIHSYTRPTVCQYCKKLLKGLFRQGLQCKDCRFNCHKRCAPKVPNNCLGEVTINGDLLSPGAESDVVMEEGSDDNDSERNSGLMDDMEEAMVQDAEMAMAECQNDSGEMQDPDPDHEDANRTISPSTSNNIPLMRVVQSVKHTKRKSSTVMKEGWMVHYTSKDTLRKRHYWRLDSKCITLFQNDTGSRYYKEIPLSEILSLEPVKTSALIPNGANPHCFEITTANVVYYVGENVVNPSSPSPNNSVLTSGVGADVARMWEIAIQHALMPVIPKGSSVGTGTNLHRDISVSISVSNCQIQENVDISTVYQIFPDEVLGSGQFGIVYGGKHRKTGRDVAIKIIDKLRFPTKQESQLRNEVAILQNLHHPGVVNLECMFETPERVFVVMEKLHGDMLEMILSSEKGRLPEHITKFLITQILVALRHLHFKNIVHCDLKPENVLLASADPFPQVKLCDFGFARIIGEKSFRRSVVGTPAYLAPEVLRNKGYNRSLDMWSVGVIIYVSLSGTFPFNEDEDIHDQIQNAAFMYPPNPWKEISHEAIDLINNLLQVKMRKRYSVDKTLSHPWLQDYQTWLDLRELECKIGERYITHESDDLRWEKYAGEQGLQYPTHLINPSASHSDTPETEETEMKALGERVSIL

[20] = target: Activated CDC42 kinase 1 (Homo sapiens) (UniProt Q07912)
[21] = Compound concentration 100.0 nM
[22] = Compound concentration 1000.0 nM

Measured: residual activity

Chain of Serine/threonine-protein kinase 33 (Homo sapiens) (Q9BYT3 whole entry, looked up): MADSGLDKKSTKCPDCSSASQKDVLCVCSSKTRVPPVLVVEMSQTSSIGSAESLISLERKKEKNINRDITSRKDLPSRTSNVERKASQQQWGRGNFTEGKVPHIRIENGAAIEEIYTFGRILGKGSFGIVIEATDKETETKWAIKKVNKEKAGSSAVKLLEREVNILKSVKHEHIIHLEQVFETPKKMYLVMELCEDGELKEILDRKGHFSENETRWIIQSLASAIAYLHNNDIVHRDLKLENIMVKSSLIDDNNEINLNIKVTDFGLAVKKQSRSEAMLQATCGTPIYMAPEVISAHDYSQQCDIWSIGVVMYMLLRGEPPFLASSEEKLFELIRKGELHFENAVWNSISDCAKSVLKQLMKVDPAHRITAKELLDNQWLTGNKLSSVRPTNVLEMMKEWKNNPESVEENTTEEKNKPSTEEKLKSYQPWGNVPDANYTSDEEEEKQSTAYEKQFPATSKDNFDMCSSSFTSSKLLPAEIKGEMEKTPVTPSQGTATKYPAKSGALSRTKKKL
Chain of Cyclin-dependent kinase-like 2 (Homo sapiens) (Q92772 whole entry): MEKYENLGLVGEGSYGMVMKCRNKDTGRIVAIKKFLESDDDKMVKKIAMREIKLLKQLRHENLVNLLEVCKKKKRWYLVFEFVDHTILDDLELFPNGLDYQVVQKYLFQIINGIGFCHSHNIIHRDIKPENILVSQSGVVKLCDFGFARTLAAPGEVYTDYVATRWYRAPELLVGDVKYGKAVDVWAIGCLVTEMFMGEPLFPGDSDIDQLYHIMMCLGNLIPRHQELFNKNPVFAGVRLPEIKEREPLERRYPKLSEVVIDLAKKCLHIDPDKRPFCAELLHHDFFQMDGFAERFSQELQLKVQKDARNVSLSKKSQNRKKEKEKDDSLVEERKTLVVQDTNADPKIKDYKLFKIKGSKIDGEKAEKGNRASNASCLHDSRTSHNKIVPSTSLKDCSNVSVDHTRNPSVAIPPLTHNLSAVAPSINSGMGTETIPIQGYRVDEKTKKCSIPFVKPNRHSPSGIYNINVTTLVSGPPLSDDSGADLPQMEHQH
Chain of Serine/threonine-protein kinase ULK3 (Homo sapiens) (Q6PHR2 whole entry): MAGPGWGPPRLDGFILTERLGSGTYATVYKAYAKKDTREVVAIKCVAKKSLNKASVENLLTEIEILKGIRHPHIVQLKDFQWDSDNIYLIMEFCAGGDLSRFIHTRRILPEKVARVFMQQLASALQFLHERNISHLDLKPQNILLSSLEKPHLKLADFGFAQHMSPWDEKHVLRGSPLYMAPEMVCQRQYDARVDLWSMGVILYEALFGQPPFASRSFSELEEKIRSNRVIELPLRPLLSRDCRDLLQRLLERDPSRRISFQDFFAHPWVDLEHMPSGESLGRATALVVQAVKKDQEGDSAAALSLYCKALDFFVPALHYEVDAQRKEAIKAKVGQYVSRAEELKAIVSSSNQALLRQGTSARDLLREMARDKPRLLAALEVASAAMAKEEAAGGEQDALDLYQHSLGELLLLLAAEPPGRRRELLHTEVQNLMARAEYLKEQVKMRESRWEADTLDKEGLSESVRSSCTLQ
Chain of Tyrosine-protein kinase BTK (Homo sapiens) (Q06187 whole entry, canonical isoform): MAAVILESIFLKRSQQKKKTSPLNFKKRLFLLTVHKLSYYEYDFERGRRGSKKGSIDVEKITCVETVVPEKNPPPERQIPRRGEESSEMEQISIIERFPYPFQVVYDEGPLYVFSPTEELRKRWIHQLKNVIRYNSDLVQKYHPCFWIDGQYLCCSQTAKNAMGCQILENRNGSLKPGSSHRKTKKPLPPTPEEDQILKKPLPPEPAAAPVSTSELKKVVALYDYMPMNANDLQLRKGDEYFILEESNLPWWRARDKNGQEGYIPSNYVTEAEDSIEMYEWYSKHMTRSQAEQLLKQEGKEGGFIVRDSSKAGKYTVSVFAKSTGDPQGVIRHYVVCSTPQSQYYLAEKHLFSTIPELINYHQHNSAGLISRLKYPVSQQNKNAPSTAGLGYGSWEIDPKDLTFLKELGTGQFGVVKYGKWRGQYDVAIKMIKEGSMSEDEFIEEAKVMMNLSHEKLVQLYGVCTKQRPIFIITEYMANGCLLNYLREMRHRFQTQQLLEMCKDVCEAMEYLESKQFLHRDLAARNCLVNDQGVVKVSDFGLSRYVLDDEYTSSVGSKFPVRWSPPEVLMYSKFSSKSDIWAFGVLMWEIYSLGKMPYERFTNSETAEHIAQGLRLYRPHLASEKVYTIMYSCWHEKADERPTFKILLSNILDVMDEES
Chain of Tyrosine-protein kinase Lck (Homo sapiens) (P06239 2-509 limits assumed): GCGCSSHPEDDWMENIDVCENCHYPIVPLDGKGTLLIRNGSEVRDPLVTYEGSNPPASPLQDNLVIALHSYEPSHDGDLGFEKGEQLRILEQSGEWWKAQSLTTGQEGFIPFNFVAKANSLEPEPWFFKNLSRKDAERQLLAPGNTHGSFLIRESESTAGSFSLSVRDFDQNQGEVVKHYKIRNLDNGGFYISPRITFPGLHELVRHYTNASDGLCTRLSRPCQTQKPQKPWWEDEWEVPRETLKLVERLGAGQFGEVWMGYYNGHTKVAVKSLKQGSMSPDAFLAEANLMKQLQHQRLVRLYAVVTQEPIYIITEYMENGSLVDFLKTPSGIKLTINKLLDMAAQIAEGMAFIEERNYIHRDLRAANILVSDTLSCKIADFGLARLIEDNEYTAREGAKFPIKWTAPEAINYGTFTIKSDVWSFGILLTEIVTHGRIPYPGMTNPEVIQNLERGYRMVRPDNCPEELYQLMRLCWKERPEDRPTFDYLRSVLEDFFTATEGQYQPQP
Chain of Dual serine/threonine and tyrosine protein kinase (Homo sapiens) (Q6XUX3 whole entry): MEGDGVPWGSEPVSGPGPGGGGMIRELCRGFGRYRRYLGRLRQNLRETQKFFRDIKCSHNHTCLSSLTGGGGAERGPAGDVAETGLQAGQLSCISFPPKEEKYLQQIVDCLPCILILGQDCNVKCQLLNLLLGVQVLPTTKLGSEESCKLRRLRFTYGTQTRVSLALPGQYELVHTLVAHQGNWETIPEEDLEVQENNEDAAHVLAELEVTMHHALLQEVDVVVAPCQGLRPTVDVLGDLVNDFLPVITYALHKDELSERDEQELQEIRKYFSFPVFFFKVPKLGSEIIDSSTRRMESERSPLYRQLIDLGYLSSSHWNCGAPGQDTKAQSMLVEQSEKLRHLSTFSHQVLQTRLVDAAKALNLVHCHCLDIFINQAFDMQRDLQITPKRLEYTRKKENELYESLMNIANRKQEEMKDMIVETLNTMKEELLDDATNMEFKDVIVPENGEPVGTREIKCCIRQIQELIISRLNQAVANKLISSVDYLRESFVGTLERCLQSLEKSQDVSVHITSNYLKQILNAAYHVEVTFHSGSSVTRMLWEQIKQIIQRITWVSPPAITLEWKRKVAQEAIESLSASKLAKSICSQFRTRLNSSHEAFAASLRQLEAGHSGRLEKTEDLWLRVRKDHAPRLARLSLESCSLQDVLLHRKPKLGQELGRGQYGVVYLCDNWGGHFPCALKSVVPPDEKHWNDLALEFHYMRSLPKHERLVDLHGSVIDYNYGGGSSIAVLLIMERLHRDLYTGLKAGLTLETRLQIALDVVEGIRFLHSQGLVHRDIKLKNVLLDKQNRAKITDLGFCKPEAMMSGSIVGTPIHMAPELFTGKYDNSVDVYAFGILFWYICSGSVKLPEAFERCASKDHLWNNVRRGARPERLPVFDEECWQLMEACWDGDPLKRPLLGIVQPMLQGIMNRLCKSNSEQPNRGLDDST
Chain of Activated CDC42 kinase 1 (Homo sapiens) (Q07912 whole entry, looked up): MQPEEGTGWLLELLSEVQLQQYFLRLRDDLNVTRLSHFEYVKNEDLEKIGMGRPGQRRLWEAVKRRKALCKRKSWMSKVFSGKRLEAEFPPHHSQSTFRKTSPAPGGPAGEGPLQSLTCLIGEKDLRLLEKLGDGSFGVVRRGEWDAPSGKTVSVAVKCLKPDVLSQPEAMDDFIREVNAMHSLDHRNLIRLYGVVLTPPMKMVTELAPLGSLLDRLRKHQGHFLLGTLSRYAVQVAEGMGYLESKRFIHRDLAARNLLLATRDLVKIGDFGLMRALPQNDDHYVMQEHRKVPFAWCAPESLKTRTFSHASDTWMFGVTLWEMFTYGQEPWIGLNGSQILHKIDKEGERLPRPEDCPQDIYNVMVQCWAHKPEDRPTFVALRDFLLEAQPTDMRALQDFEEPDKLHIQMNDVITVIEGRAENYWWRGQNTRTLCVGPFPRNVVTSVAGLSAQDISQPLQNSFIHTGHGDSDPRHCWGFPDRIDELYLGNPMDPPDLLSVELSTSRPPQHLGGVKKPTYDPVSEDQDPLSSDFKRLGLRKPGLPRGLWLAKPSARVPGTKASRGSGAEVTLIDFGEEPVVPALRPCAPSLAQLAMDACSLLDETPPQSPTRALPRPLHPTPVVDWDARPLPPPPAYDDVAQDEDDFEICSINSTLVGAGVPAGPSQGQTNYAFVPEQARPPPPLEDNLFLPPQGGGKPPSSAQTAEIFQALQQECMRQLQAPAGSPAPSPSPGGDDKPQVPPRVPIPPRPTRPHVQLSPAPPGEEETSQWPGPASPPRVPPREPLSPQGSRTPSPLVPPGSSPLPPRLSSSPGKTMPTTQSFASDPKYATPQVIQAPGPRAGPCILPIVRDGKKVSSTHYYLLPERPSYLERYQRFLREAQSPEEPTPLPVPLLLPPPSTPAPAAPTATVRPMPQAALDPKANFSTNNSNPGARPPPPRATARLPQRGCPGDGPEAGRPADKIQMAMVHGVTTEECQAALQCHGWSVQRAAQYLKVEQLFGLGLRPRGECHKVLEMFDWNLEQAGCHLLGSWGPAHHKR
Chain of Cyclin-dependent kinase 9 (Homo sapiens) (P50750 whole entry): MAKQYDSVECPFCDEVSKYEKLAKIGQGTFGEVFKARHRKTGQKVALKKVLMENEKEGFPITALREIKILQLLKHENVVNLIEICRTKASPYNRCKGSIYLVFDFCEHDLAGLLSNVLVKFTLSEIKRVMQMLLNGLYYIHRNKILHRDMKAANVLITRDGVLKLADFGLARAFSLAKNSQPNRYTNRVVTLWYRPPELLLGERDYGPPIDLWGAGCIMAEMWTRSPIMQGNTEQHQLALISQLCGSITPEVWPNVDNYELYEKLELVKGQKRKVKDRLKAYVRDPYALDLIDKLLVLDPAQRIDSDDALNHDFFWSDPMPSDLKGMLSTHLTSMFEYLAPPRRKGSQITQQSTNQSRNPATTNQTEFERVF

C[C@@H]1CN(c2cc(-c3n[nH]c4ccc(OC5(C)CC5)cc34)ncn2)C[C@H](C)O1 [MLi-2]
inactive: [1]; [21] 80% | [2]; [21] 73% | [3]; [21] 100% | [4]; [21] 73% | [5]; [21] 76% | [6]; [21] 100% | [7]; [21] 77% | [8]; [21] 63% | [9]; [21] 100% | [10]; [21] 59% | [11]; [21] 85% | [12]; [21] 78% | [13]; [21] 100% | [14]; [21] 98% | [15]; [21] 63% | [16]; [21] 86% | [17]; [21] 100% | [18]; [21] 100% | [19]; [21] 84% | [20]; [21] 79%

C[C@@H]1CN(c2cc(-c3nn(C)c4ccc(OC5(C)CC5)cc34)ncn2)C[C@H](C)O1 [MLi-2-NC]
inactive: [1]; [22] 84% | [2]; [22] 91% | [3]; [22] 100% | [4]; [22] 80% | [5]; [22] 100% | [6]; [22] 100% | [7]; [22] 67% | [8]; [22] 100% | [9]; [22] 71% | [10]; [22] 72% | [11]; [22] 100% | [12]; [22] 67% | [13]; [22] 100% | [14]; [22] 83% | [15]; [22] 76% | [16]; [22] 86% | [17]; [22] 92% | [18]; [22] 94% | [19]; [22] 82% | [20]; [22] 96%

Source: ChEMBL document CHEMBL4507291 (2021)
